In ChEMBL document CHEMBL1944594, “Synthesis, biological evaluation, and docking studies of tetrahydrofuran- cyclopentanone- and cyclopentanol-based ligands acting at adrenergic α₁- and serotonine 5-HT1A receptors” (J Med Chem, 2012):

How the values were obtained:
[1] = target: T1, Alpha-1D adrenergic receptor (Rattus norvegicus) (UniProt P23944); assay: Antagonist activity at Alpha-1D adrenoceptor in Wistar rat endothelium denuded thoracic aorta assessed as inhibition of (-)-noradrenalilne-induced contraction after 30 mins; assay type: functional, tissue-based
T1 sequence (whole entry): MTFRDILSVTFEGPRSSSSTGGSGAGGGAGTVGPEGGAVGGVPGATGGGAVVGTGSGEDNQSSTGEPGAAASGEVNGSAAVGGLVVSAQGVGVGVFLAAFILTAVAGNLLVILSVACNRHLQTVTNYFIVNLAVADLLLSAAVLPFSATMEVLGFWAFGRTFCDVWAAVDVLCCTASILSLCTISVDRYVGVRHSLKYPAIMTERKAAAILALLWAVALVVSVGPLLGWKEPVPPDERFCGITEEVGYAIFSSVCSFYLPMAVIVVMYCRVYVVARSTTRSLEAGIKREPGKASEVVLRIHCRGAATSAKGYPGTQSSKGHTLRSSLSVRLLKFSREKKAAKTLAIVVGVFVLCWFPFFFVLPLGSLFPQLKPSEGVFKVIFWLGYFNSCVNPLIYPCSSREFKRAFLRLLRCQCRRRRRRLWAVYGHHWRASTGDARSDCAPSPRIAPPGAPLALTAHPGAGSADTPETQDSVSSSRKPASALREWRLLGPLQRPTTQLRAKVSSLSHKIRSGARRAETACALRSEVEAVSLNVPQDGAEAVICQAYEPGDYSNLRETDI

[2] = target: T2, 5-hydroxytryptamine receptor 1A (Homo sapiens) (UniProt P08908); conditions: HeLa
T2 sequence (whole entry): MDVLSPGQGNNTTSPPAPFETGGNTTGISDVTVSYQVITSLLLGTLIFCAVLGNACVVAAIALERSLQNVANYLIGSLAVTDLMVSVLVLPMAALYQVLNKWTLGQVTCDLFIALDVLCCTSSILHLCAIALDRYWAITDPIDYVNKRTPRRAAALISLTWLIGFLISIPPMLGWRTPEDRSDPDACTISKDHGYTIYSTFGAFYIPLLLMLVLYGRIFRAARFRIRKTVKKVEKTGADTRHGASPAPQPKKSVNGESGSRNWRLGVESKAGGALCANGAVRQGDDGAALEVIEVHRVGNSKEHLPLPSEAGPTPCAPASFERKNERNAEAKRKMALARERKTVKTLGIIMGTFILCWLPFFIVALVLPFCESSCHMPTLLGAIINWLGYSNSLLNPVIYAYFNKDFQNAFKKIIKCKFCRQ

[3] = target: T3, Alpha-1A adrenergic receptor (Rattus norvegicus) (UniProt P43140); assay: Antagonist activity at alpha1A adrenoceptor in Wistar rat prostatic vas deferens assessed as inhibition of (-)-noradrenalilne-induced contraction after 30 mins; assay type: functional, tissue-based
T3 sequence (whole entry): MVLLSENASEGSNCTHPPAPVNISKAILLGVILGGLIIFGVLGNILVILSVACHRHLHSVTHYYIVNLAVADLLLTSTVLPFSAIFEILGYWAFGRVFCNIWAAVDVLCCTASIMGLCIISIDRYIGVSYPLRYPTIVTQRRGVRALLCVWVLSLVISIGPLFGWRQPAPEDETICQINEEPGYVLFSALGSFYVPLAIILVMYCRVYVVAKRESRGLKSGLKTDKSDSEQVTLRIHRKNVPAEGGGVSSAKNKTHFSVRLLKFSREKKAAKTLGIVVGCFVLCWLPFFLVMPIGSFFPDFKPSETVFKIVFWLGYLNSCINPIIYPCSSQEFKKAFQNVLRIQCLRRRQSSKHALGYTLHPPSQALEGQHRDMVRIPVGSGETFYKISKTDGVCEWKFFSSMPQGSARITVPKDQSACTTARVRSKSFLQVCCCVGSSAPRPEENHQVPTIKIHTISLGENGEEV

[4] = target: T2, 5-hydroxytryptamine receptor 1A (Homo sapiens); assay: Agonist activity at human recombinant 5HT1A receptor expressed in HeLa cells preincubated for 20 mins by [35S]GTPgammaS binding assay relative to 8-OH-DPAT; assay type: functional, cell-based
[5] = target: T4, Alpha-1B adrenergic receptor (Rattus norvegicus) (UniProt P15823); assay: Antagonist activity at Alpha-1B receptor in Wistar rat spleen assessed as inhibition of (-)-phenylephrine-induced contraction after 30 mins; assay type: functional, tissue-based
T4 sequence (whole entry): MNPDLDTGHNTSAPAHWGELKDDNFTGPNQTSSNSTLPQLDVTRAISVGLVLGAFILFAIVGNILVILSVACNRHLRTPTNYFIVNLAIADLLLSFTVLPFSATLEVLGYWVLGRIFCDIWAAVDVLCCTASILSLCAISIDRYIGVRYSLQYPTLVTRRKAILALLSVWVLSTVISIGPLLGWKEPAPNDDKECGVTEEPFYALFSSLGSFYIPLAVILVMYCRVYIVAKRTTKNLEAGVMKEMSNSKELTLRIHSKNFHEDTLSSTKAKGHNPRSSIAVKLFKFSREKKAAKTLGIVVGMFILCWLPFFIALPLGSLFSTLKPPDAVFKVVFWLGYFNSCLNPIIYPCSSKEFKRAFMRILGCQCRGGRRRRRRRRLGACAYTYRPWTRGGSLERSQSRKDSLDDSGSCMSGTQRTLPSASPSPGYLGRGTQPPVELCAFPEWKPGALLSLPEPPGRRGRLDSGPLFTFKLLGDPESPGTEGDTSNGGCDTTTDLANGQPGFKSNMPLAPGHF

[6] = target: T5, Alpha-1A adrenergic receptor (Homo sapiens, UniProt P35348); assay: biochemical
T5 sequence (P35348 whole entry): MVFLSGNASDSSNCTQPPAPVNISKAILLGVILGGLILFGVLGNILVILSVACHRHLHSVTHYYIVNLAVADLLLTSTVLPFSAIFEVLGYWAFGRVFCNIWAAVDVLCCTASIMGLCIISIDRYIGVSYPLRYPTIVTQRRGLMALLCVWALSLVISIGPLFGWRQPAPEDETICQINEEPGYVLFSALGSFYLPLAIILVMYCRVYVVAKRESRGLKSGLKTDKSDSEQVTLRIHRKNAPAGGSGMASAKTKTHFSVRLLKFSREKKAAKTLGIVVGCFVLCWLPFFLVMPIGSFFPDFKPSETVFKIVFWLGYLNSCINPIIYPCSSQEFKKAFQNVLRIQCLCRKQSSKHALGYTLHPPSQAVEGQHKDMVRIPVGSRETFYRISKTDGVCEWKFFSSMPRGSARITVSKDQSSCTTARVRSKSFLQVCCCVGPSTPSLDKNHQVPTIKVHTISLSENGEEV
Description: Displacement of [3H]prazosin from human recombinant alpha1A adrenoceptor expressed in CHO cells after 30 mins by liquid scintillation counting

[7] = target: T6, Alpha-1B adrenergic receptor (Homo sapiens, UniProt P35368); assay: biochemical
T6 sequence (P35368 whole entry): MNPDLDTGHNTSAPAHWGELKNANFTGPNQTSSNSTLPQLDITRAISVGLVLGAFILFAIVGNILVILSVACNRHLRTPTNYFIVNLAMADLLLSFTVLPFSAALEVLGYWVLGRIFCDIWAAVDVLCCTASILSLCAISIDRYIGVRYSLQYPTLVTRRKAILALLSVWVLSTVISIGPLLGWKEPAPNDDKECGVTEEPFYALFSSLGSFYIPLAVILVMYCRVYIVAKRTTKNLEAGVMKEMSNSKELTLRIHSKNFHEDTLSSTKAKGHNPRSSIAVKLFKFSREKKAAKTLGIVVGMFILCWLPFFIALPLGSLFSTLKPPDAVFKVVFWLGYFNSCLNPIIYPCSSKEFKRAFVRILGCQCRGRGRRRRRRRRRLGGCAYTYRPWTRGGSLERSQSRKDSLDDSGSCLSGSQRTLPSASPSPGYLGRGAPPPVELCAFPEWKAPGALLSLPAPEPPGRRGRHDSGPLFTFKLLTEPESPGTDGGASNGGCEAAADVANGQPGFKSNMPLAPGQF
Description: Displacement of [3H]prazosin from human recombinant alpha1B adrenoceptor expressed in CHO cells after 30 mins by liquid scintillation counting

[8] = target: T7, Alpha-1D adrenergic receptor (Homo sapiens, UniProt P25100); assay: biochemical
T7 sequence (P25100 whole entry): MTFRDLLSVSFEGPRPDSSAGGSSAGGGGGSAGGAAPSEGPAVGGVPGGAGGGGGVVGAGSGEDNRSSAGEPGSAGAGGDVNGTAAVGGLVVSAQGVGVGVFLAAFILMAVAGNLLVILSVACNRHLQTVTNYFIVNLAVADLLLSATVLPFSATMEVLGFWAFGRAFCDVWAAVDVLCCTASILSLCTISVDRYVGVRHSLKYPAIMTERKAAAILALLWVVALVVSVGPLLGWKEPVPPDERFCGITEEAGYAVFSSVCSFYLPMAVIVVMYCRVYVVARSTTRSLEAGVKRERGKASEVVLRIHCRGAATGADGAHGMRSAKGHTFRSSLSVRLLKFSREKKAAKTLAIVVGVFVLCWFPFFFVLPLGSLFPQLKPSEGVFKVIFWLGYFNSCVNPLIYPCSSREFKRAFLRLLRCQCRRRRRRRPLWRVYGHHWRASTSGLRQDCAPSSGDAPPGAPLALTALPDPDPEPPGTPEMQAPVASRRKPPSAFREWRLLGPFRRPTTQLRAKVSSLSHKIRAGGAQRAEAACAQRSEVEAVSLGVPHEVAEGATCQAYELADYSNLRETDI
Description: Displacement of [3H]prazosin from human recombinant Alpha-1D adrenoceptor expressed in CHO cells after 30 mins by liquid scintillation counting

[9] = target: T8, 5-hydroxytryptamine receptor 1A (Homo sapiens, UniProt P08908); assay: biochemical
T8 sequence (P08908 whole entry): T2 sequence (whole entry)

SMILES | pKb [1] | pD2 [2] | pKb [3] | Emax [4] [%] | pKb [5] | Ki [6] [nM] | Ki [7] [nM] | Ki [8] [nM] | Ki [9] [nM]
c1ccc(OCCNCC2COC(c3ccccc3)(c3ccccc3)O2)cc1 (centres undefined) | 8.37 | 8.8 | 6.16 | 24.4 | 5.86 | – | – | – | –
COc1ccccc1N1CCN(CC2COC(c3ccccc3)(c3ccccc3)O2)CC1 (centres undefined) | 8.14 | 8.3 | 8.24 | 16.2 | 6.69 | 0.263 | 6.76 | 0.813 | 22.9
COc1ccccc1N1CCN(C[C@H]2CCC(c3ccccc3)(c3ccccc3)[C@H]2O)CC1 (relative stereo) | 7.21 | 9.03 | 5.62 | 47.1 | 7.25 | 38.9 | 166 | 67.6 | 0.562
COc1ccccc1OCCNCC1CCC(c2ccccc2)(c2ccccc2)O1 (centres undefined) | 8.09 | 9.04 | 7.24 | 53.4 | 6.92 | 26.9 | 39.8 | 6.31 | 0.832
COc1ccccc1N1CCN(CC2CCC(c3ccccc3)(c3ccccc3)O2)CC1 (centres undefined) | 7.5 | – | 7.65 | – | 6.85 | 0.646 | 8.91 | 3.89 | 4.37
COc1ccccc1OCCNCC1COC(c2ccccc2)(c2ccccc2)O1 (centres undefined) | 8.65 | 7.36 | 7.53 | 31.6 | 7.36 | – | – | – | –
c1ccc(OCCNCC2CCC(c3ccccc3)(c3ccccc3)O2)cc1 (centres undefined) | 7.21 | – | 6.26 | – | 6.2 | 53.7 | 123 | 31.6 | 2
O[C@@H]1[C@@H](CNCCOc2ccccc2)CCC1(c1ccccc1)c1ccccc1 (relative stereo) | 6.86 | 7.94 | 5.43 | 64.9 | 6.67 | > 1000 | 288 | 93.3 | 9.55
COc1ccccc1OCCNC[C@H]1CCC(c2ccccc2)(c2ccccc2)[C@@H]1O (relative stereo) | 8.42 | 8.96 | 6.57 | 64.1 | 7.7 | 110 | 74.1 | 5.75 | 0.324
O[C@@H]1[C@H](CNCCOc2ccccc2)CCC1(c1ccccc1)c1ccccc1 (relative stereo) | 6.88 | 7.81 | 5.23 | 46.5 | 6.26 | > 1000 | > 1000 | > 1000 | 9.33
COc1ccccc1N1CCN(CC2CCC(c3ccccc3)(c3ccccc3)C2=O)CC1 (centres undefined) | 6.43 | – | 6.28 | – | 7.54 | 39.8 | 141 | 155 | 3.47
O=C1C(CNCCOc2ccccc2)CCC1(c1ccccc1)c1ccccc1 (centres undefined) | 6.3 | 7.44 | < 5 | 25.5 | 6.95 | > 1000 | > 1000 | 389 | 10.5
COc1ccccc1OCCNCC1CCC(c2ccccc2)(c2ccccc2)C1=O (centres undefined) | 6.54 | 8.37 | 6.39 | 39.4 | 6.92 | > 1000 | > 1000 | 141 | 3.47
COc1ccccc1N1CCN(CCN2C(=O)CC3(CCCC3)CC2=O)CC1 | – | 9.27 | – | – | 7.48 | – | – | – | –
COc1ccccc1N1CCN(C[C@H]2CCC(c3ccccc3)(c3ccccc3)[C@@H]2O)CC1 | 6.82 | 8.74 | 6.39 | 37.3 | 7.14 | 44.7 | 245 | 67.6 | 0.794
